Experimental data reported in publication PMC5764437, “Discovery of novel, orally bioavailable, antileishmanial compounds using phenotypic screening” (PLoS Neglected Tropical Diseases, 2017).
≈ marks a conversion by molar mass, not a printed value. Read-outs that look alike come from different tables or passages of the source.

Tests used:
[1] = system: bloodstream form Lister 427 T. brucei; assay: Growth inhibition of T. brucei bloodstream forms (SYBR Green I); format: cell-based; conditions: bloodstream form, mean ± standard deviation, n = 2, read-out: T. brucei EC50
Method: (§1) L. mexicana (MNYZ/BZ/62/M379) or L. donovani (LdBob strain) parasites expressing the Renilla luciferase gene from a rRNA gene locus were used to infect J774A.1 macrophages. Growth of intracellular amastigotes was measured using a luminescence assay, as detailed previously. The growth inhibitor activities of compounds were tested against bloodstream form Lister 427 T. brucei in 96-well plates containing 1 X 10^5 parasites per well in 0.2 ml HMI-11 medium (Gibco/Thermo Fisher). Compounds (2 μl volumes in DMSO) were added to the parasites using serial 3-fold dilutions to cover a range of concentrations from about 10 μM to 1 nM. After 48 h incubation at 37°C under a humidified 5% CO2 atmosphere, 10 μl of 10% Triton X-100 and 100 X stock SYBR Green I (Sigma-Aldrich) in PBS was added and florescence measured (excitation 497 nm; emission 520 nm) after 1 h incubation in the dark using a Spectra Max Gemini XPS fluorimeter (Molecular Devices). Data were log transformed and EC50 values were determined using GraphPad Prism 6 (GraphPad Software). In the absence of growth inhibiting compounds, the parasites grew from an initial density of 5 X 10^5 cells/mL to ~3 X 10^6 cells/mL.

[2] = system: L. mexicana intracellular amastigotes; assay: Growth inhibition of intracellular amastigotes in J774A.1 macrophages (Renilla luciferase luminescence); format: cell-based; conditions: Leishmania mexicana, J774.A1; intracellular amastigotes in J774A.1 macrophages; mean ± standard deviation, n = 2; read-out: L. mexicana EC50
Method: as §1
[…]. These were chosen as candidates for further study. From these 230 compounds, we were able to repurchase 113 from commercial vendors. These compounds were characterized for purity by ultra-performance liquid chromatography using ultraviolet spectroscopy and evaporative light scattering detection and identity by mass spectrometry. All validated compounds were profiled for activity against intracellular amastigotes, the disease-causing stage of the life cycle. Intracellular amastigote activity was determined using a strain of L. mexicana in which the Renilla luciferase gene was integrated into the rRNA locus, allowing robust expression for measuring amastigote growth within cultured macrophages. All 113 compounds were applied at 1 μM concentration for 96 h to J774A.1 macrophages infected with L. mexicana luciferase-expressing parasites. […].
Next, we generated dose-response curves for these 55 compounds against intracellular amastigotes and independently against J774A.1 macrophages to establish the relative potency of each compound against the pathogen and its host cell. […]. The nine remaining compounds, each representing a unique chemical scaffold (compounds 1–9, Fig 3), were designated top hits (Fig 1).

[3] = system: Trypanosoma cruzi CL Brener epimastigotes; assay: Growth inhibition of Trypanosoma cruzi epimastigotes (SYBR Green); format: cell-based; conditions: Trypanosoma cruzi; 72 h, 10 μM to 1 nM; read-out: T. cruzi epimastigotes EC50
Method: Trypanosoma cruzi CL Brener epimastigotes were obtained from Dr. Fred Buckner of the Department of Medicine at the University of Washington. T. cruzi epimastigotes were grown in liver infusion tryptose medium and seeded in a 96-well plate at 10^5 epimastigotes per well in 100 μl medium. For each well, 1 μl of compound in DMSO at 100X the desired final concentration was added. Epimastigotes were exposed to a range of compound concentrations from 10 μM to 1 nM to determine EC50. Plates were incubated at 26°C for 72 h, then 10 μl 50X SYBR Green in 1% Triton X-100 was added to each well followed by incubation with shaking at room temperature for 30 minutes. Fluorescence was read (excitation 485nm, emission 535nm) with the Victor^2 multiplate reader (PerkinElmer). All data processing and visualization were performed using GraphPad Prism 6 software.

[4] = system: L. donovani intracellular amastigotes; assay: Growth inhibition of intracellular amastigotes in J774A.1 macrophages (Renilla luciferase luminescence); format: cell-based; conditions: Leishmania donovani, J774.A1; intracellular amastigotes in J774A.1 macrophages; mean ± standard deviation, n = 2; read-out: L. donovani EC50
Method: as §1

J774A.1 macrophages = assay: Cytotoxicity to J774A.1 macrophages (dose-response); format: cell-based; conditions: Mus musculus, J774.A1; host macrophage; tested up to 10 μM; mean ± standard deviation, n = 2; read-out: J774A.1 EC50
Method: Cytotoxicity of compounds to J774.A1 macrophages was determined by dose-response curves as described previously. In the absence of growth inhibitors or DMSO, the macrophages increased in number ~6-fold over 96 h in Minimum Essential Medium, employed for both macrophage infections and the toxicity assays.

[5] = Liver microsomal stability, mouse; conditions: female, microsomes, pH 7.4
Method: (§2) One part of 10 mM DMSO compound stock was mixed with 4 parts of acetonitrile to make 2 mM diluted compound stock in DMSO and acetonitrile. 29.1 µL diluted compound stock was added to 2.3 mL liver microsomal solution and vortexed to make microsomal solution with compound. […] For the 0 h time point, 450 µL pre-cooled (4 °C) internal standard (10 µM warfarin in methanol) was added to the first three columns before the reaction was initiated. 1.25 ml of microsome assay solution A (Fisher Scientific, #NC9255727) was combined with 0.25 ml of solution B (Fisher Scientific, #NC9016235) in 3.5 ml of potassium phosphate buffer (0.1 M, pH 7.4). 45 µL of this A+B solution was added to each well of the 96-well storage plate (reaction plate). Liquid in the first 3 columns was moved to another storage plate (quenched plate). The reaction plate was then sealed, incubated at 37 °C, and shaken at a speed of 60 rpm. Time points (0.5 h, 1 h, 2 h) were taken. At each time point, 450 µL pre-cooled internal standard was added to 3 rows in the reaction plate, and the liquid was then transferred to the quenched plate. […] 200 µL supernatant was transferred to a 96-well plate and analyzed by ultra-performance liquid chromatography-mass spectrometry (UPLC-MS) (Waters Inc.). The compounds and internal standard were detected by selected ion recording (SIR).

[6] = Liver microsomal stability, rat; conditions: microsomes, pH 7.4
Method: as §2

[7] = Solubility in aqueous buffer; format: physicochemical; conditions: pH 7.4, aqueous buffer, kinetic from dmso stock
Method: Solubility assays were carried out on a Biomek FX lab automation workstation (Beckman Coulter, Inc., Fullerton, CA) using μSOL Evolution software (pION Inc.). Compound stock (10 mM in DMSO, 10 μL) was added to 1-propanol (190 μL) to make a reference stock plate. Reference stock solution (5 μL) was mixed with 1-propanol (70 μL) and citrate phosphate buffered saline (pH 7, 75 μL) to make the reference plate which was then measured with UV detection. Test compound stock (10 mM, 6 μL) was added to citrate phosphate buffered saline (594 μL) in a 96-well storage plate and mixed. […] The suspension was then filtered through a 96-well filter plate (pION Inc.). Filtrate (75 μL) was mixed with 1-propanol (75 μL) to make the sample plate, and the UV spectrum (250 nm −500 nm) of the sample plate was recorded. Calculation of solubility was carried out using μSOL Evolution software based on the AUC of the UV spectrum of the sample plate and the reference plate. All compounds were tested in triplicate.

[8] = Liver microsomal stability, human; conditions: both, microsomes, pH 7.4
Method: as §2

in vitro = conditions: pH 1
Method: Compound stocks were 10 mM in DMSO. The internal standard was 5 µM warfarin in methanol. […] 1 ml SGF was added to a 1.1 ml 96-well storage plate and mixed well with 10 µl compound stock. The plate was then incubated at 37 °C and shaken at 60 rpm. […] At each time point, 100 µl was removed to a 1 ml storage plate and 300 µl internal standard was added to quench the reaction. […] The compound was detected by SIR and quantification was based on peak area of test compound and the internal standard.

[9] = Parallel Artificial Membrane Permeability Assay (PAMPA); conditions: pH 7.4
Method: Parallel Artificial Membrane Permeability Assay (PAMPA) was conducted by Biomek FX lab automation workstation (Beckman Coulter, Inc.) and PAMPA evolution 96 command software (pION Inc.). A 3 µL aliquot of […] test compound stock in DMSO was mixed with 597 µL of isotonic citrate phosphate buffered saline to make diluted test compound. Diluted test compound (150 µL) was transferred to a UV plate (pION Inc.) and the UV spectrum was read as the reference plate. The membrane on a pre-loaded PAMPA sandwich (pION Inc.) was painted with 4 µL GIT lipid (pION Inc.). The acceptor chamber was then filled with 200 µL acceptor solution buffer, (pION Inc.), and the donor chamber was filled with 180 µL diluted test compound. The PAMPA sandwich was assembled, placed on the Gut-Box and stirred for 30 min. The Aqueous Boundary Layer was set to 40 µm for stirring. The UV spectrum (250-500 nm) of the donor and the acceptor solutions were recorded. The permeability coefficient was calculated using PAMPA Evolution 96 Command software (pION Inc.) based on the AUC of the reference plate, the donor plate and the acceptor plate. All compounds were tested in triplicate.

[10] = Caco-2 permeability assay; format: in vitro ADME; conditions: human, pH 7.4; for Papp A→B at 2 h, 10 μmol/L / Papp B→A at 2 h, 10 μmol/L: mean ± standard deviation of three runs; for Papp A→B at 2 h, 10 μmol/L: read-out: Caco-2 (A→B) permeability coefficient; for Papp B→A at 2 h, 10 μmol/L: read-out: Caco-2 (B→A) permeability coefficient
L. mexicana = assay: Efficacy in murine model of cutaneous leishmaniasis (footpad lesion size); format: in vivo; conditions: BALB/c mice infected with L. mexicana; 20 mg/kg daily oral gavage for 10 days from week 4; measured weeks 4–12
Method: Female BALB/c mice (~20 g) were injected in one hind footpad with 1 x 10^6 stationary phase promastigotes suspended in 25 μl of phosphate buffered saline (PBS). Four weeks after infection, when a small cutaneous lesion was visible in the injected footpad, cohorts of five mice were treated with either compound or vehicle alone (90 μl), delivered daily for 10 consecutive days by oral gavage using a 20-gauge x 30 mm disposable plastic feeding needle. Vehicle consisted of 10/10/40/39 mixture of ethanol/(PG)/PEG400/PBS plus 1% (weight/volume) 2HβCD (PG is propylene glycol, PEG is polyethylene glycol, 2HβCD is 2-hydroxy-β-cyclodextran). The daily dose for each compound was: compound 4, 25 mg/kg; compound 5, 30 mg/kg; miltefosine, 20 mg/kg. The width of the footpad (top to bottom) was measured with calipers before injection of parasites (day 0) and weekly from weeks 4–12. The width of the uninfected contralateral footpad was also measured each week, and its width was subtracted from that of the infected footpad to determine lesion size.

Row | SMILES | EC50 [2] [nM] | EC50 [3] [nM] | EC50 [4] [nM] | EC50 (J774A.1 macrophages) [nM] | half-life at 20 μM [5] [h] | half-life at 20 μM [6] [h] | solubility at 18 h [7] [µM] | half-life at 20 μM [8] [h] | half-life at 99 µM (in vitro; simulated gi fluid) [h] | Papp A→B at 2 h, 10 μmol/L ([10]; Caco-2) [×10⁻⁶ cm/s] | Papp B→A at 2 h, 10 μmol/L ([10]; Caco-2) [×10⁻⁶ cm/s] | further results
1 | Cc1ccc(-c2cc3c(c(OCC4CCCN(C)C4)c2)OCCN(C(=O)Cc2c(C)noc2C)C3)s1 (stereo not shown) [Compound 8] | 23 ± 18 | 330 | 1.1 ± 0.8 | 2200 ± 1400 | – | – | – | – | – | – | – | EC50 ([1]; Trypanosoma brucei): 300 ± 80 nM; EC50 [1]: < 300 nM
2 | Oc1c(C(Nc2ccccn2)c2cccc(Cl)c2Cl)ccc2cccnc12 (stereo not shown) [Compound 9] | 100 ± 10 | 2100 ± 70 | 15 ± 9 | 9000 ± 6000 | – | – | – | – | – | – | – | –
3 | CCCSc1ccc2nc(NC(=O)OC)[nH]c2c1 [albendazole] | – | – | – | – | 0.7 | 1.62 | 3.8 (≈ 1.01 µg/mL) | > 4 | > 24 | – | – | Papp at 30 min, 0.05 µM [9]: 204 ×10⁻⁶ cm/s
4 | NC(=O)N1c2ccccc2C=Cc2ccccc21 [carbamazepine] | – | – | – | – | – | – | – | – | – | 71.8 ± 1.2 | 56.5 ± 3.2 | half-life at 20 μM ([5]; mouse): > 4 h; half-life at 20 μM ([6]; rat): > 4 h; efflux ratio at 2 h, 10 μmol/L ([10]; Caco-2, pH 7.4, Papp B→A / Papp A→B): 0.79; solubility at 18 h ([7]; citrate phosphate buffered saline): 82.2 µM (≈ 19.4 µg/mL); half-life at 20 μM ([8]; human): > 4 h; half-life at 99 µM (in vitro; simulated gastric fluid with pepsin): > 24 h; Papp at 30 min, 0.05 µM ([9]; PAMPA): 95.6 ×10⁻⁶ cm/s
5 | C[C@H]1O[C@@H](O[C@H]2[C@@H](O)C[C@H](O[C@H]3[C@@H](O)C[C@H](O[C@H]4CC[C@@]5(C)[C@H](CC[C@@H]6[C@@H]5C[C@@H](O)[C@]5(C)[C@@H](C7=CC(=O)OC7)CC[C@]65O)C4)O[C@@H]3C)O[C@@H]2C)C[C@H](O)[C@@H]1O [digoxin] | – | – | – | – | > 4 | > 4 | 80.3 (≈ 62.7 µg/mL) | > 4 | > 24 | 4.61 ± 0.46 | 27.1 ± 2.1 | efflux ratio at 2 h, 10 μmol/L ([10]; Caco-2, Papp B→A / Papp A→B): 5.87
6 | CCCCCCCCCCCCCCCCOP(=O)([O-])OCC[N+](C)(C)C [miltefosine, reference compound] | – | – | – | – | – | – | – | – | – | – | – | Cutaneous lesion size (footpad width) (L. mexicana): reduced lesion size from the initial dimension
